# Test: log P (pH2.3)
# Format: physicochemical
# Conditions: method [a]: HPLC, acidic range, pH 2.3, 0.1% aqueous phosphoric acid and acetonitrile
row,Compound,log p
1,Cc1cc(C)n(CC(=O)N2CCC(c3nc(CCc4ccccc4)cs3)CC2)n1 [Example I-54],2.86^[a]

# Same assay, conditions: method [b]: LC-MS, acidic range, pH 2.7, 0.1% aqueous formic acid and acetonitrile
row,Compound,log p
1,Cc1cc(C(F)(F)F)nn1CC(=O)N1CCC(c2nc(/C=C\c3ccccc3)cs2)CC1 [Example I-1],3.91^[b]
2,O=C(Cn1ccc(C(F)(F)F)n1)N1CCC(c2nc(/C=C\c3ccccc3)cs2)CC1 [Example I-7],3.72^[b]
3,Cc1c(Cl)c(C(F)(F)F)nn1CC(=O)N1CCC(c2nc(/C=C\c3ccccc3)cs2)CC1 [Example I-8],4.56^[b]
4,Cc1cc(C(F)(F)F)nn1CC(=O)N1CCC(c2nc(/C=C\c3ccc(Cl)cc3)cs2)CC1 [Example I-9],4.41^[b]
5,O=C(Cn1ccc(C(F)(F)F)n1)N1CCC(c2nc(/C=C\c3ccc(Cl)cc3)cs2)CC1 [Example I-10],4.2^[b ]
6,Cc1c(Cl)c(C(F)(F)F)nn1CC(=O)N1CCC(c2nc(/C=C\c3ccc(Cl)cc3)cs2)CC1 [Example I-11],4.92^[b]
7,COc1ccc(/C=C\c2csc(C3CCN(C(=O)Cn4nc(C(F)(F)F)cc4C)CC3)n2)cc1 [Example I-12],3.9^[b]
8,COc1ccc(/C=C\c2csc(C3CCN(C(=O)Cn4nc(C(F)(F)F)c(Cl)c4C)CC3)n2)cc1 [Example I-14],4.46^[b]
9,Cc1cc(C(F)(F)F)nn1CC(=O)N1CCC(c2nc(/C=C\c3cccc(C(F)(F)F)c3)cs2)CC1 [Example I-15],4.51^[b]
10,O=C(Cn1ccc(C(F)(F)F)n1)N1CCC(c2nc(/C=C\c3cccc(C(F)(F)F)c3)cs2)CC1 [Example I-16],4.3^[b]
11,Cc1c(Cl)c(C(F)(F)F)nn1CC(=O)N1CCC(c2nc(/C=C\c3cccc(C(F)(F)F)c3)cs2)CC1 [Example I-17],5.03^[b]
12,O=C(Cn1ccc(C(F)(F)F)n1)N1CCC(c2nc(/C=C\c3cccc4ccccc34)cs2)CC1 [Example I-18],4.35^[b]
13,Cc1c(Cl)c(C(F)(F)F)nn1CC(=O)N1CCC(c2nc(/C=C\c3cccc4ccccc34)cs2)CC1 [Example I-19],5.14^[b]
14,O=C(Cn1ccc(C(F)(F)F)n1)N1CCC(c2nc(/C=C\c3ccc4ccccc4c3)cs2)CC1 [Example I-21],4.35^[b]
15,Cc1c(Cl)c(C(F)(F)F)nn1CC(=O)N1CCC(c2nc(/C=C\c3ccc4ccccc4c3)cs2)CC1 [Example I-22],5.08^[b]
16,Cc1cc(C(F)(F)F)nn1CC(=O)N1CCC(c2nc(/C=C\Cc3ccccc3)cs2)CC1 [Example I-23],4.41^[b]
17,Cc1cc(C(F)(F)F)nn1CC(=O)N1CCC(c2nc(/C=C/c3ccccc3)cs2)CC1 [Example I-26],3.99^[b]
18,Cc1cc(C(F)F)n(CC(=O)N2CCC(c3nc(CCc4ccccc4)cs3)CC2)n1 [Example I-35],3.37^[b]
19,O=C(Cn1nc(C(F)(F)F)cc1C(F)(F)F)N1CCC(c2nc(CCc3cccc4ccccc34)cs2)CC1 [Example I-43],4.89^[b]
20,O=C(Cn1ccc(C(F)(F)F)n1)N1CCC(c2nc(CCc3ccccc3)cs2)CC1 [Example I-55],3.57^[b]
21,O=C(Cc1cccc(C(F)(F)F)c1)N1CCC(c2nc(CCc3ccccc3)cs2)CC1 [Example I-56],4.26^[b]
22,O=C(Cc1cccc(Cl)c1)N1CCC(c2nc(CCc3ccccc3)cs2)CC1 [Example I-57],4.1^[b]
23,O=C(Cn1nc(C(F)(F)F)cc1C(F)(F)F)N1CCC(c2nc(CCc3ccccc3)cs2)CC1 [Example I-59],4.45^[b]
24,Cc1c(Cl)c(C(F)(F)F)nn1CC(=O)N1CCC(c2nc(CCc3ccccc3)cs2)CC1 [Example I-60],4.34^[b]
25,O=C(c1cccc(C(F)(F)F)c1)N1CCC(c2nc(CCc3ccccc3)cs2)CC1 [Example I-62],4.23^[b]
26,CC(C(=O)N1CCC(c2nc(CCc3ccccc3)cs2)CC1)n1ccc(C(F)(F)F)n1 (stereo not drawn) [Example I-68],3.93^[b]
27,O=C(Cn1cccn1)N1CCC(c2nc(CCc3ccccc3)cs2)CC1 [Example I-69],2.56^[b]

# Same assay, conditions: method [b]: LC-MS, acidic range, pH 2.7, 0.1% aqueous formic acid and acetonitrile; HPLC on reversed-phase C 18
row,Compound,log p
1,Cc1ccccc1C=Cc1csc(C2CCN(C(=O)Cn3nc(C(F)(F)F)cc3C)CC2)n1 (mixture of isomers) [Example I-166],4.23^[b]
2,Cc1ccccc1C=Cc1csc(C2CCN(C(=O)Cn3nc(C(F)(F)F)cc3C(F)(F)F)CC2)n1 (mixture of isomers) [Example I-174],4.93^[b]
3,O=C(Cn1nc(C(F)(F)F)cc1C(F)(F)F)N1CCC(c2nc(C=Cc3ccccc3Br)cs2)CC1 (mixture of isomers) [Example I-175],4.99^[b]
4,O=C(Cn1nc(C(F)(F)F)cc1C(F)(F)F)N1CCC(c2nc(C=Cc3c(F)cccc3F)cs2)CC1 (mixture of isomers) [Example I-176],4.88^[b]
5,Cc1cc(C(F)(F)F)nn1CC(=O)N1CCC(c2nc(C=Cc3c(F)cccc3Cl)cs2)CC1 (mixture of isomers) [Example I-242],4.48^[b]

# Same assay, conditions: reversed-phase HPLC column (C18); method [b]: LC-MS, acidic range, pH 2.7, 0.1% aqueous formic acid and acetonitrile
row,Compound,chromatographic logP
1,"Cc1cc(C(F)(F)F)nn1CC(=O)N1CCC(c2nc(/C=C\c3ccc4ccccc4c3)cs2)CC1 [Example I-20, 2-[5-Methyl-3-(trifluoromethyl)-1H-pyrazol-1-yl]-1-(4-{4-[(Z)-2-(2-naphthyl)vinyl]-1,3-thiazol-2-yl}piperidin-1-yl)ethanone]",4.61
2,"CCCCC(=O)N1CCC(c2nc(CCc3ccccc3)cs2)CC1 [Example I-58, 1-{4-[4-(2-Phenylethyl)-1,3-thiazol-2-yl]piperidin-1-yl}pentan-1-one]",3.73
3,"O=C(c1cc(C(F)(F)F)ccc1C(F)(F)F)N1CCC(c2nc(CCc3ccccc3)cs2)CC1 [Example I-61, [2,5-Bis(trifluoromethyl)phenyl]{4-[4-(2-phenylethyl)-1,3-thiazol-2-yl]piperidin-1-yl}methanone]",4.67
4,"O=C(Cc1ccsc1)N1CCC(c2nc(CCc3ccccc3)cs2)CC1 [Example I-63, 1-{4-[4-(2-Phenylethyl)-1,3-thiazol-2-yl]piperidin-1-yl}-2-(thiophen-3-yl)ethanone]",3.47
5,"Cc1c(Cl)c(C(F)(F)F)nn1C(C)C(=O)N1CCC(c2nc(CCc3ccccc3)cs2)CC1 (stereo not drawn) [Example I-64, 2-[4-Chloro-5-methyl-3-(trifluoromethyl)-1H-pyrazol-1-yl]-1-{4-[4-(2-phenylethyl)-1,3-thiazol-2-yl]piperidin-1-yl}propan-1-one]",4.62
6,"Cn1ncc(CC(=O)N2CCC(c3nc(CCc4ccccc4)cs3)CC2)c1Cl [Example I-65, 2-(5-Chloro-1-methyl-1H-pyrazol-4-yl)-1-{4-[4-(2-phenylethyl)-1,3-thiazol-2-yl]piperidin-1-yl}ethanone]",2.98
7,"COc1ccc(CCC(=O)N2CCC(c3nc(CCc4ccccc4)cs3)CC2)cc1OC [Example I-66, 3-(3,4-Dimethoxyphenyl)-1-{4-[4-(2-phenylethyl)-1,3-thiazol-2-yl]piperidin-1-yl}propan-1-one]",3.43
8,"O=C(Cc1cc(C(F)(F)F)ccc1Cl)N1CCC(c2nc(CCc3ccccc3)cs2)CC1 [Example I-67, 2-[2-Chloro-5-(trifluoromethyl)phenyl]-1-{4-[4-(2-phenylethyl)-1,3-thiazol-2-yl]piperidin-1-yl}ethanone]",4.73
9,"O=C(Cn1cc2ccccc2n1)N1CCC(c2nc(CCc3ccccc3)cs2)CC1 [Example I-70, 2-(2H-Indazol-2-yl)-1-{4-[4-(2-phenylethyl)-1,3-thiazol-2-yl]piperidin-1-yl}ethanone]",3.14

# Source: patent publication US7943774B2 (priority 2008, dated 2011)
